Assay results taken from patent US9592226B2, “Solenopsin and derivatives, therapeutic compositions; and methods related thereto” (priority 2013, dated 2017).
“Also recorded” adds a separate entry of the source.

Tests used:
[1] = system: A375 (human melanoma) cells; experiment: Proliferation study, A375 cells (Coulter Counter); type: cell-based; conditions: 10 μM, 24 h, cell count vs DMSO
Method: 50,000 cells/well were plated and treated for 24 h with each compound. The first DMSO bar in each chart serves as control for (+)-solenopsin A, (−)-solenopsin A, and ceramide C2. The second DMSO bar is the control for S11-S15.
(§1) Different analogs of solenopsin were synthesized (FIG. 1) in order to explore their structure-activity relationships. The aliphatic side chains of S14 and S13 are 4 and 8 carbons longer compared to solenopsin, respectively. S11 has an 8-carbon longer side chain, as well as an extra methyl group in the 4-position of the piperidine ring. S15 has an 11-carbon side chain similar to solenopsin, but the first carbon in the side chain is hydroxylated. Also, S15 lacks the methyl group in the 2-position of the piperidine ring. All the analogs together with (−)- and (+)-solenosin A, and the isomeric mixture of the two cis-isomers of solenopsin (S12) were tested, at 10 μM, on two different human melanoma cell lines (A375 and A2058) and one murine angiosarcoma cell line (SVR) (FIG. 2). The A375 and A2058 melanoma cell lines express mutant Braf and the SVR murine angiosarcoma cell line expresses mutant Hras. One important difference between the two human melanoma cell lines is the A2058 is PTEN null, whereas A375 is not.
(§2) A375 (human melanoma), A2058 (human melanoma), or SVR (murine angiosarcoma) cells were plated at a concentration of 50,000 cells/well. The cells were treated with 10 μM of (−)-solenopsin A, (+)-solenopsin A, or analogs (S11-S15) for 24 hours, at which point cells were counted with a Coulter Counter.

[2] = system: A2058 (human melanoma) cells; experiment: Proliferation study, A2058 cells (Coulter Counter); type: cell-based; conditions: 10 μM, 24 h, cell count vs DMSO
Text: as §1, §2

[3] = system: SVR (murine angiosarcoma) cells; experiment: Proliferation study, SVR cells (Coulter Counter); type: cell-based; conditions: 10 μM, 24 h, cell count vs DMSO
Text: as §1, §2

UM-SCC1A cells = experiment: Oxygen consumption rate (Seahorse) in UM-SCC1A cells; type: cell-based, human; conditions: 10 μM, 24 h
Method: UM-SCC1A cells were plated 15,000/well and treated for 24 h with 10 μM of (+)-solenopsin A ((+) Sol. A), (−)-solenopsin A ((−) Sol. A), and solenopsin analogs S11-S15. Oxygen consumption rate (OCR) was measured as pmoles O2/minute using a Seahorse Biosciences instrument. Data shown are an average of three experiments±s.d.
At least not in Braf mutated cell lines, such as A375 and A2058. One possibility is that solenopsin, like ceramide, may also localize to mitochondria, and cause mitochondrial induced cell death. Cellular oxygen consumption rate can be indicative of mitochondrial function. Therefore, to investigate if solenopsin A and analogs do alter mitochondrial function, UM-SCC1A (human head and neck SCC) cells were then treated with 10 μM compound or the equivalent amount of DMSO and incubated for 24 hours. A SeaHorse Bioscience instrument was used to measure the oxygen consumption rate (OCR). […] Mitophagy can be one reason for decreased OCR, but further assays are needed to confirm the cause for the observed differences.
UM-SCC1A cells were plated 15,000 per well in 200 μl DMEM supplemented with 10% FBS and 1% penicillin-streptomycin in each well of a 96-well Seahorse plate and incubated overnight at 37° C. with 5% CO2. Cells were then treated with 10 μM compound or the equivalent amount of DMSO and incubated for 24 hours. OCR was measured as pmoles O2/minute using the Seahorse Biociences instrument per manufacturer's instructions. Protein amounts in each well were then quantified using the Thermo Scientific Pierce Protein Assay, per manufacturer's instructions.

A375 cells = experiment: Superoxide (ROS) by DHE fluorescence, A375 cells; type: cell-based, human; conditions: 10 μM, 24 h
Method: Cells were treated for 24 h with 10 μM of (+)-solenopsin A ((+) Sol. A), (−)-solenopsin A ((−) Sol. A), and solenopsin analogs S11-S15. Cells were trypsined and incubated for 10 min in 10 μM dihydroethedium (DHE), followed by analysis with a FACScan flow cytometer. Data shown are an average of three experiments±s.d.
A375 or SVR cells were plated in 6 cm dishes. After cells had adhered to the plates, they were treated for 24 h with 10 μM DMSO solutions of (+)-solenopsin A, (−)-solenopsin A, or analogs (S11-S15) at which time the media was aspirated. Cells were washed with 2 mL PBS then treated with 0.05% trypsin/0.53 mM EDTA (Fisher) for 3 min at RT. Cells were collected and then pelleted at 600 g for 2 min. The supernatant was aspirated and the cells were suspended in 10 uM dihydroethidium (DHE) (Life Technologies) and incubated for 10 min in the dark at RT while shaking Following this incubation, cells were kept until counting on a Becton Dickinson FACScan flow cytometer. 10,000 cells were counted and analyzed by FlowJo 7.6.4. Mean values of DHE fluorescence intensity were compared.

[4] = target: neuronal nitric oxide synthase (Homo sapiens, UniProt P29475); conditions: Yi et al., Int J Toxicol 2003; cited from earlier work
Chain of neuronal nitric oxide synthase (P29475 whole entry): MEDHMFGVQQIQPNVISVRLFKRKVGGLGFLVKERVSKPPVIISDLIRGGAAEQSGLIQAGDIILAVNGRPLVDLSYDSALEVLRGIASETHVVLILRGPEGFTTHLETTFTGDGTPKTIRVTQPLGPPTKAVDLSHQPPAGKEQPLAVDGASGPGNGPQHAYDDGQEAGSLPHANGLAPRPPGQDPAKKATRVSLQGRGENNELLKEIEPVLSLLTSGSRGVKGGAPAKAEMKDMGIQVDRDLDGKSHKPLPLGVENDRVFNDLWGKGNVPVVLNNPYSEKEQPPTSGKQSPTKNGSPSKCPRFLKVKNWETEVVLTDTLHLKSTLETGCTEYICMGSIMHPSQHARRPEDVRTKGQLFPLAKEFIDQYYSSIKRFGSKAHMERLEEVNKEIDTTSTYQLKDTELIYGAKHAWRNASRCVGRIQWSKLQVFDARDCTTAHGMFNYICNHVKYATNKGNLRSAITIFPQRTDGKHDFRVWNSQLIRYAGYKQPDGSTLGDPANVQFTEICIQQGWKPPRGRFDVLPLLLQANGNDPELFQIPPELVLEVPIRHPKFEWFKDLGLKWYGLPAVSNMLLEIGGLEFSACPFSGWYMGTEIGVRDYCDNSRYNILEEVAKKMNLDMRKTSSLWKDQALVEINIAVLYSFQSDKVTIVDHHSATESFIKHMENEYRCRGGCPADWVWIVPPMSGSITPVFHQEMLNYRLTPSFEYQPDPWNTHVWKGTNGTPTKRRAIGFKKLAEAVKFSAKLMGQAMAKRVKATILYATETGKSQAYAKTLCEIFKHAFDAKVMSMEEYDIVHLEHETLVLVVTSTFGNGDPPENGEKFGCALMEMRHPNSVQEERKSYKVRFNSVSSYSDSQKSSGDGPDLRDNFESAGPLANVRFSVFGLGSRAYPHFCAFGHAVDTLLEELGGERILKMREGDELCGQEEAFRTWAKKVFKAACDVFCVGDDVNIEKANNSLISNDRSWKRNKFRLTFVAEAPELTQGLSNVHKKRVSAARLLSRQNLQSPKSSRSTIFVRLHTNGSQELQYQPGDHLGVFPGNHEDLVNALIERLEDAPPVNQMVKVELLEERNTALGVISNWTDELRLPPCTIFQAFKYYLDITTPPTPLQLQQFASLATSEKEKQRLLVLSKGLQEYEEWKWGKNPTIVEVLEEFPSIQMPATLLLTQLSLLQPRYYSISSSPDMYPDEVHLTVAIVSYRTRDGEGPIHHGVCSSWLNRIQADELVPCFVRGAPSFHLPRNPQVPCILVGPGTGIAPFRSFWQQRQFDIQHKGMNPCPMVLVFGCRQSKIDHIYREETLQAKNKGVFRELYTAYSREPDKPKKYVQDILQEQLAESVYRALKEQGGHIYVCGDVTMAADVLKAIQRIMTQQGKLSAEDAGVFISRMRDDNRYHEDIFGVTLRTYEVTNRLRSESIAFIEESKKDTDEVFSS

p-Akt S473 = experiment: Western blot p-Akt S473 in SVR cells; type: cell-based, murine; conditions: 10 μM (ceramide C2 20 μM), 24 h
Method: (§3) A375, SVR, and A2058 cells were treated for 24 h with ceramide C2 (20 μM), (+)-solenopsin A ((+) Sol. A, 10 μM), (−)-solenopsin A ((−) Sol. A, 10 μM), or solenopsin analogs S11-S15 (10 μM). The expression of p-AKT S473, p-pMAPK 44/42, and B-actin was determined by western blotting.
(§4) A375, SVR, and A2058 cells treated with solenopsin A and analogs were evaluated by Western-blotting with pAkt S473, p-pMAPK 44/42, and β-actin (FIG. 5). Although the proliferation results were more or less similar in all three cell lines, the protein expressions varied. In A375's an up-regulation of pAkt S473 and p-pMAPK 44/42 could be seen for (+)- and (−)-solenopsin A, as well as for analogs S12-S15 (FIG. 5). […] The results for cell line A2058 is similar to A375, i.e. there is an up-regulation of p-Akt S473 and p-pMAPK 44/42 in the treatment groups compared to the control. […] Both human melanoma cell lines (A375 and A2058) are reactive oxygen driven tumors, whereas the murine angiosarcoma cell line (SVR) is not. […]
(§5) Cells were grown in T-25 flasks until 80% confluent followed by treatment for 24 h with 10 μM DMSO solutions of (+)-solenopsin A, (−)-solenopsin A, or analogs (S11-S15). Sample aliquots normalized for protein quantities were size fractionated by 10% SDS-PAGE, and the proteins were transferred to a PVDF membrane. […]

p-pMAPK 44/42 = experiment: Western blot p-pMAPK 44/42 in SVR cells; type: cell-based, murine; conditions: 10 μM (ceramide C2 20 μM), 24 h
Method: as §3, §4, §5

PTEN = experiment: Lipid raft fractionation (sucrose density gradient), PTEN translocation to membrane rafts in A375 cells; type: cell-based, human; conditions: 50 μM (positive control), 1 h
Method: A375 cells were treated for 1 h with: ceramide C2 (50 μM), (+)-solenopsin A ((+) Sol. A, 20 μM), (−)-solenopsin A ((−) Sol. A, 20 μM), or solenopsin analogs S11-S15 (20 μM). Cells were lysed in 0.5% Brij96 in TNEV, loaded onto the 5-40% sucrose gradient, and centrifuged at 34,000 rpm at 4° C. for 22 h. Thirteen fractions were collected, starting from the top of the tube. Equal volumes of each fraction were analyzed by Western blotting with caveolin and PTEN antibodies. Caveolin serves a positive control for which fractions that contain lipid rafts.
Caveolin was used as a positive marker to identify lipid raft fractions and an anti-PTEN antibody was used to identify PTEN-containing fractions (FIG. 3). A375 cells were treated for 1 h with 20 μM of (+)-solenopsin, (−)-solenopsin, or analogs S11-S15. […]
Cells were grown in T-75 flasks until 80% confluent followed by treatment for 1 h with 20 μM DMSO solutions of (+)-solenopsin A, (−)-solenopsin A, analogs (S12-S15), or 50 μM of ceramide C2 in DMSO. […] Equal volumes of each fraction were analyzed by Western blot with relevant antibodies.
as §5

Pseudomonas aeruginosa = conditions: Park et al. 2008; cited from earlier work
phosphoinositol-3 kinase = conditions: p53 deficient renal cell carcinoma cell line 786-O; Arbiser et al. 2007; cited from earlier work
angiogenesis = conditions: Arbiser et al., Blood 2007; cited from earlier work

Row | Compound | antiproliferative effect [1] | antiproliferative effect [2] | antiproliferative effect [3] | oxygen consumption rate (OCR) compared to DMSO control (UM-SCC1A cells) | other results
1 | CCCCCCCCCCCCCCCCCCCC1CC(C)CC(C)N1 (centres unmarked) [Compound S11, 2,4-Dimethyl-6-nonadecylpiperidine] | no significant antiproliferative effect | no significant antiproliferative effect | no significant antiproliferative effect | little change compared to the control | effect on superoxide levels (DHE fluorescence) (A375 cells): no effect on superoxide levels
2 | CCCCCCCCCCCC1CCCC(C)N1 (centres unmarked) [isosolenopsin A, 2-methyl-6-nundecylpiperidine] | – | – | – | – | inhibition of neuronal nitric oxide synthase [4]: potent and selective inhibitor
3 | CCCCCCCCCCC(O)C1CCCCN1 (centres unmarked) [Compound S15, 1-(Piperidin-2-yl)undecan-1-ol] | equally as effective as solenopsin A; also recorded: potent antiproliferative effect | equally as effective as solenopsin A; also recorded: potent antiproliferative effect; also recorded: most potent analog | equally as effective as solenopsin A; also recorded: potent antiproliferative effect | drastically reduced OCR | expression of p-Akt S473 (p-Akt S473): down-regulated; expression of p-pMAPK 44/42 (p-pMAPK 44/42): down-regulated
4 | Ceramide | – | – | – | – | amount of PTEN in the lipid raft fractions (PTEN): higher amount of PTEN in the lipid raft fractions
5 | CCCCCCCCCCCC1CCCC(C)N1 (centres unmarked) [Solenopsin, 2-methyl-6-nundecylpiperidine] | – | – | – | – | quorum sensing in Pseudomonas aeruginosa (Pseudomonas aeruginosa): blocks quorum sensing; phosphoinositol-3 kinase (phosphoinositol-3 kinase): downregulated phosphoinositol-3 kinase; anti-angiogenic activity (angiogenesis): anti-angiogenic activity
6 | CCCCCCCCCCCC1CCCC(C)N1 (centres unmarked) [Compound S12, 2-Methyl-6-undecylpiperidine] | anti-proliferative properties, although not as potent as solenopsin A itself; also recorded: clearly weaker than for the (−)- and (+)-solenopsin A | anti-proliferative properties, although not as potent as solenopsin A itself; also recorded: clearly weaker than for the (−)- and (+)-solenopsin A | anti-proliferative properties, although not as potent as solenopsin A itself; also recorded: clearly weaker than for the (−)- and (+)-solenopsin A | drastically reduced OCR | –
7 | CCCCCCCCCCCCCCCC1CCCC(C)N1 (centres unmarked) [Compound S14, 2-Methyl-6-pentadecylpiperidine] | equally as effective as solenopsin A; also recorded: most potent analog | equally as effective as solenopsin A; also recorded: approximately equally as potent as (−)- and (+)-solenopsin A | equally as effective as solenopsin A; also recorded: most potent analog | drastically reduced OCR | expression of p-Akt S473 (p-Akt S473): down-regulated; expression of p-pMAPK 44/42 (p-pMAPK 44/42): down-regulated
